Assay results taken from patent US20250243194A1, “ANTAGONIST OF ADENOSINE RECEPTORS” (AdoRx Therapeutics Limited, priority 2022, published 2025).
Like-named read-outs stand apart in the source and are kept apart here.

Tests used:
[1] = molecular target: human Adenosine A2b receptor (Homo sapiens (Human), UniProt P29275); assay: Adenosine receptor TR-FRET binding assay (A2b); details: inhibition of binding of 30 nM CA200645; CHO cell membranes; Ki from IC50 by Cheng and Prusoff
Protocol: (§1) All FRET binding experiments were conducted at room temperature in white 384-well plates, in assay binding buffer containing 1× LabMed (Cisbio, France), 100 μg/mL saponin, 1% DMSO and 0.02% pluronic acid. Binding of the fluorescently labelled Adenosine receptor antagonist XAC (CA200645, FRET acceptor) to terbium-labelled A1, A2a, A2b and A3 adenosine receptors (FRET donors) was detected by time-resolved FRET due to the close proximity of the donor and acceptor in a binding event. To investigate the ability of unlabelled test compounds to bind to Adenosine A1, A2a, A2b and A3 receptors, dose response curves were constructed that determined the ability of a range of concentrations to inhibit the binding of 30 nM CA200645 to the A2b receptor and 100 nM CA200645 to the A1, A2a, and A3 receptor.
(§2) Serial dilution (1:3 dilutions) of test compounds in neat DMSO and transfer of a 400 nL sample of test compound into the assay plate was carried out using the Mosquito (TTP Labtech, UK). The compound samples were incubated for 2 hours at room temperature with a fixed concentration of CA200645 defined for each receptor (see above) and CHO cell membranes containing the human Adenosine A1 (0.5 μg/well), A2a (0.3 μg/well), A2b (1 μg/well) or A3 (1 μg/well) receptor in 40 μL of assay buffer. Total and non-specific binding of CA200645 was determined in the absence and presence of 10 μM XAC, respectively. Following 2 hours incubation, the level of CA200645 binding was detected on a Pherastar FSX (BMG Labtech, Germany) using standard TR-FRET settings. The terbium donor was excited with three laser flashes at a wavelength of 337 nm, and donor and acceptor emission was detected at 620 nm and 665 nm wavelengths, respectively. FRET ratios were obtained by multiplying the acceptor/donor ratio value by 10,000. Specific binding was determined by subtracting the non-specific binding FRET ratio from the total binding FRET ratio. Compound IC50 curves were analysed using GraphPad Prism 7.0 (GraphPad, USA) and Ki affinity values were determined from the obtained IC50 values using the method of Cheng and Prusoff.

[2] = molecular target: human Adenosine A2a receptor (Homo sapiens (Human), UniProt P29274); assay: Adenosine receptor TR-FRET binding assay (A2a)
Chain of human Adenosine A2a receptor (P29274 whole entry): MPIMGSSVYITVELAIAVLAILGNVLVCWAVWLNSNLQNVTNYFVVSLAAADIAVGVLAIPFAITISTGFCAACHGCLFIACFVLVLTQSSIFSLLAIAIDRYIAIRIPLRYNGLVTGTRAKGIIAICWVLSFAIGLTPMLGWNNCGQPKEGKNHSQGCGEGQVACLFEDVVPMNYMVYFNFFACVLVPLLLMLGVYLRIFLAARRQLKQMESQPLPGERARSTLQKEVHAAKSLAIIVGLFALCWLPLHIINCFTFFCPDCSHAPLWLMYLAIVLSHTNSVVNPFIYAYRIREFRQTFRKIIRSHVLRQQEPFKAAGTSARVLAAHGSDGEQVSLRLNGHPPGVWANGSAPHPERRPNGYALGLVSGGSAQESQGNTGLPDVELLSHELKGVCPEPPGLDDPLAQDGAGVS
Protocol: as §1, §2

[3] = molecular target: human Adenosine A1 receptor (Homo sapiens (Human), UniProt P30542); assay: Adenosine receptor TR-FRET binding assay (A1)
Chain of human Adenosine A1 receptor (P30542 whole entry): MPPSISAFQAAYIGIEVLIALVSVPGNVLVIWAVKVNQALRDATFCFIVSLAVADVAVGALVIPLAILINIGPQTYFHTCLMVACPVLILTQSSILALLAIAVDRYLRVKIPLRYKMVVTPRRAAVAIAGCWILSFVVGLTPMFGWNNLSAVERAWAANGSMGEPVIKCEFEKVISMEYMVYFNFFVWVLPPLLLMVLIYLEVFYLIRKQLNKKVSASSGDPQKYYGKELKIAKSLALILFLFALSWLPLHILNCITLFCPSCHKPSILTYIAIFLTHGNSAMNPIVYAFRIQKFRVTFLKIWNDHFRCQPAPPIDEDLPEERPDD
Protocol: as §1, §2

[4] = inhibition of binding of 100 nM CA200645, CHO cell membranes, Ki from IC50 by Cheng and Prusoff

Chain of human Adenosine A2b receptor (P29275 whole entry): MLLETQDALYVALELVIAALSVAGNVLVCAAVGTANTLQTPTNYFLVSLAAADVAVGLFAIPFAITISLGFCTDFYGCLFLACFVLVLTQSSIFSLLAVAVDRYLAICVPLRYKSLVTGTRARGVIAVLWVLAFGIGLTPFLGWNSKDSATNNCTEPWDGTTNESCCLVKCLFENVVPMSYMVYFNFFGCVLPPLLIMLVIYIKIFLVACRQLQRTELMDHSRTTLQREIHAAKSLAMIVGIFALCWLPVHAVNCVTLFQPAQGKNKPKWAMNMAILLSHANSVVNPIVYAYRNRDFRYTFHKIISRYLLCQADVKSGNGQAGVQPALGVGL

Ki [1] [nM] | Ki [2, 4] [nM] | Ki [3, 4] [nM] | Ki [2] [nM] | Ki [3] [nM] | SMILES
0.9 | 0.08 | 13 | – | – | Cc1ncnc2ccc(-c3sc(NC(=O)N4CC5(CCO5)C4)nc3-c3cccc(C#N)c3)cc12 [Example 7.19, N-[4-(3-Cyanophenyl)-5-(4-methylquinazolin-6-yl)thiazol-2-yl]-1-oxa-6-azaspiro[3.3]heptane-6-carboxamide]
3.6 | 0.26 | 9 | – | – | Cc1ncnc2ccc(-c3sc(NC(=O)N4CCOC(C(C)(C)O)C4)nc3-c3cccc(C#N)c3)cc12 (racemic) [Example 7.7, N-[4-(3-Cyanophenyl)-5-(4-methylquinazolin-6-yl)thiazol-2-yl]-2-(1-hydroxy-1-methyl-ethyl)morpholine-4-carboxamide]
2.6 | 0.18 | 17 | – | – | Cc1ncnc2ccc(-c3sc(NC(=O)N4CCN[C@H](C(C)(C)O)C4)nc3-c3cccc(C#N)c3)cc12 [Example 7.16, (3S)-N-[4-(3-Cyanophenyl)-5-(4-methylquinazolin-6-yl)thiazol-2-yl]-3-(1-hydroxy-1-methyl-ethyl)piperazine-1-carboxamide]
2.4 | – | – | 0.3 | 30 | Cc1ncnc2ccc(-c3sc(NC(=O)N4CCC5(COCCN5)C4)nc3-c3cccc(C#N)c3)cc12 (stereo not drawn) [Example 4.3, N-[4-(3-Cyanophenyl)-5-(4-methylquinazolin-6-yl)thiazol-2-yl]-9-oxa-2,6-diazaspiro[4.5]decane-2-carboxamide]
10.5 | 2.42 | 19 | – | – | Cc1ncnc2ccc(-c3sc(NC(=O)N4CC5CN(C)CC54)nc3-c3cccc(C#N)c3)cc12 (stereo not drawn) [Example 7.3, N-[4-(3-Cyanophenyl)-5-(4-methylquinazolin-6-yl)thiazol-2-yl]-3-methyl-3,6-diazabicyclo[3.2.0]heptane-6-carboxamide]
3.1 | 0.48 | 27 | – | – | Cc1ncnc2ccc(-c3sc(NC(=O)N4CCN(CCO)CC4)nc3-c3cccc(C#N)c3)cc12 [Example 7.27, N-[4-(3-Cyanophenyl)-5-(4-methylquinazolin-6-yl)thiazol-2-yl]-4-(2-hydroxyethyl)piperazine-1-carboxamide]
4.8 | 1.01 | 125 | – | – | Cc1ncnc2ccc(-c3sc(NC(=O)N4CCN(C5CCN(C)CC5)CC4)nc3-c3cccc(C#N)c3)cc12 [Example 7.13, N-[4-(3-Cyanophenyl)-5-(4-methylquinazolin-6-yl)thiazol-2-yl]-4-(1-methyl-4-piperidyl)piperazine-1-carboxamide]
5.4 | 2.61 | 150 | – | – | Cc1ncnc2ccc(-c3sc(NC(=O)N4CCC(N5CCOCC5)CC4)nc3-c3cccc(C#N)c3)cc12 [Example 7.14, N-[4-(3-Cyanophenyl)-5-(4-methylquinazolin-6-yl)thiazol-2-yl]-4-morpholino-piperidine-1-carboxamide]
1.9 | 0.1 | 21 | – | – | Cc1ncnc2ccc(-c3sc(NC(=O)N4CCC(OCCN5CCCC5)C4)nc3-c3cccc(C#N)c3)cc12 (stereo not drawn) [Example 7.9, N-[4-(3-Cyanophenyl)-5-(4-methylquinazolin-6-yl)thiazol-2-yl]-3-(2-pyrrolidin-1-ylethoxy)pyrrolidine-1-carboxamide]
1.2 | 0.21 | 9 | – | – | Cc1ncnc2ccc(-c3sc(NC(=O)N4CCN(C(C)C#N)CC4)nc3-c3cccc(C#N)c3)cc12 (stereo not drawn) [Example 7.5, 4-(1-Cyanoethyl)-N-[4-(3-cyanophenyl)-5-(4-methylquinazolin-6-yl)thiazol-2-yl]piperazine-1-carboxamide]
1.1 | 0.18 | 14 | – | – | Cc1ncnc2ccc(-c3sc(NC(=O)N4CCN(CC#N)CC4)nc3-c3cccc(C#N)c3)cc12 [Example 7.15, 4-(Cyanomethyl)-N-[4-(3-cyanophenyl)-5-(4-methylquinazolin-6-yl)thiazol-2-yl]piperazine-1-carboxamide]

More lines, now with the values behind:

SMILES | Ki [1] [nM] | Ki [2, 4] [nM] | Ki [3, 4] [nM] | Ki [2] [nM] | Ki [3] [nM]
CCc1ncnc2ccc(-c3sc(NC(=O)N4CC5(COC5)C4)nc3-c3cccc(C#N)c3)cc12 [Example 13, N-[4-(3-Cyanophenyl)-5-(4-ethylquinazolin-6-yl)thiazol-2-yl]-2-oxa-6-azaspiro[3.3]heptane-6-carboxamide] | 1.7 | 0.16 | 2 | – | –
Cc1ncnc2ccc(-c3sc(NC(=O)N4CCC(N5CCN(C)CC5)CC4)nc3-c3cccc(C#N)c3)cc12 [Example 7.12, N-[4-(3-Cyanophenyl)-5-(4-methylquinazolin-6-yl)thiazol-2-yl]-4-(4-methylpiperazin-1-yl)piperidine-1-carboxamide] | 6.5 | 2.05 | 221 | – | –
Cc1nc(C)c(-c2sc(NC(=O)N3CCC(C)(C#N)CC3)nc2-c2cccc(C#N)c2)o1 [Example 14, 4-Cyano-N-[4-(3-cyanophenyl)-5-(2,4-dimethyloxazol-5-yl)thiazol-2-yl]-4-methyl-piperidine-1-carboxamide] | 2.8 | 0.42 | 12 | – | –
Cc1ncnc2ccc(-c3sc(NC(=O)N4CC[C@](C)(C#N)C4)nc3-c3cccc(C#N)c3)cc12 [Example 1, (3S)-3-Cyano-N-[4-(3-cyanophenyl)-5-(4-methylquinazolin-6-yl)thiazol-2-yl]-3-methyl-pyrrolidine-1-carboxamide] | 0.9 | 0.12 | 2 | – | –
Cc1ncnc2ccc(-c3sc(NC(=O)N4CCO[C@H](C(C)(C)O)C4)nc3-c3cccc(C#N)c3)cc12 (single isomer, unassigned) [Example 7.7b, (2S)—N-[4-(3-Cyanophenyl)-5-(4-methylquinazolin-6-yl)thiazol-2-yl]-2-(1-hydroxy-1-methyl-ethyl)morpholine-4-carboxamide or (2R)—N-[4-(3-cyanophenyl)-5-(4-methylquinazolin-6-yl)thiazol-2-yl]-2-(1-hydroxy-1-methyl-ethyl)morpholine-4-carboxamide] | 1.5 | 0.2 | 9 | – | –
N#Cc1cccc(-c2nc(NC(=O)N3CC4(COC4)C3)sc2-c2ccc3ncncc3c2)c1 [Example 10, N-[4-(3-Cyanophenyl)-5-quinazolin-6-yl-thiazol-2-yl]-2-oxa-6-azaspiro[3.3]heptane-6-carboxamide] | 4.7 | 0.85 | 7 | – | –
Cc1ncnc2ccc(-c3sc(NC(=O)N4CC5CCCN(C)C5C4)nc3-c3cccc(C#N)c3)cc12 (stereo not drawn) [Example 7.11, N-[4-(3-Cyanophenyl)-5-(4-methylquinazolin-6-yl)thiazol-2-yl]-1-methyl-3,4,4a,5,7,7a-hexahydro-2H-pyrrolo[3,4-b]pyridine-6-carboxamide] | 5.4 | 0.54 | 98 | – | –
Cc1ncnc2ccc(-c3sc(NC(=O)N4CCO[C@H](C(C)(C)O)C4)nc3-c3cccc(C#N)c3)cc12 (single isomer, unassigned) [Example 7.7a, (2S)—N-[4-(3-Cyanophenyl)-5-(4-methylquinazolin-6-yl)thiazol-2-yl]-2-(1-hydroxy-1-methyl-ethyl)morpholine-4-carboxamide or (2R)—N-[4-(3-cyanophenyl)-5-(4-methylquinazolin-6-yl)thiazol-2-yl]-2-(1-hydroxy-1-methyl-ethyl)morpholine-4-carboxamide] | 1.1 | 0.1 | 4 | – | –
Cc1cc(-c2sc(NC(=O)N3CC4(COC4)C3)nc2-c2cccc(C#N)c2)cc2cnn(C)c12 [Example 30, N-[4-(3-Cyanophenyl)-5-(1,7-dimethylindazol-5-yl)thiazol-2-yl]-2-oxa-6-azaspiro[3.3]heptane-6-carboxamide] | 13.2 | 0.59 | 14 | – | –
Cc1nc(C)c2cc(-c3sc(NC(=O)N4CC5(COC5)C4)nc3-c3cccc(C#N)c3)ccc2n1 [Example 9, N-[4-(3-Cyanophenyl)-5-(2,4-dimethylquinazolin-6-yl)thiazol-2-yl]-2-oxa-6-azaspiro[3.3]heptane-6-carboxamide] | 6 | 5.45 | 70 | – | –
Cc1cc(-c2sc(NC(=O)N3CC4(COC4)C3)nc2-c2cccc(C#N)c2)c2ccn(C)c2n1 [Example 24, N-[4-(3-Cyanophenyl)-5-(1,6-dimethylpyrrolo[2,3-b]pyridin-4-yl)thiazol-2-yl]-2-oxa-6-azaspiro[3.3]heptane-6-carboxamide] | 7.2 | 10.5 | 245 | – | –
